Test results reported in US12590131B2, “Antimicrobial peptides with alpha-core helices” (priority 2017, dated 2026).

System: panel of prototypic gram-positive (S. aureus), gram-negative (S. typhimurium, P. aeruginosa, A. baumannii) and fungal (C. albicans) pathogens
Test: Radial diffusion assay for microbicidal activity, whole pathogen panel
Format: cell-based
Settings: 10 μg peptide
Experimental: Select candidate microbicidal peptides were commercially synthesized by BioMatik (Biomatik USA, Wilmington, Delaware). Lyophilized peptides were reconstituted with ddIH20 and stored in aliquots at −20° C. LL-37 (Peptides International, Louisville, KY), a prototypic human AHAP, was used as a comparator in microbicidal assays.
Putative antimicrobial peptides were assayed for microbicidal activity using a well-established radial diffusion method modified to pH 5.5 or 7.5. A panel of microorganisms was tested: Gram-positive Staphylococcus aureus (ISP 479C, ISP 479R); Gram-negative Salmonella typhimurium (MS 5996s, MS 14028), Pseudomonas aeruginosa (PA01), Acinetobacter baumanni (19606) and the fungus Candida albicans (36082S, 36082R). Logarithmic phase organisms were inoculated (10^6 CFU/ml) into buffered agarose, and poured into plates. Peptides (10 μg) were introduced into wells in the seeded matrix, and incubated for 3 h at 37° C. Nutrient overlay medium was applied, and assays incubated at 37° C. or 30° C. for bacteria or fungi, respectively. After 24h, zones of inhibition were measured. Independent experiments were repeated a minimum of two times.

Substance	microbicidal activity (zones of inhibition) (pH 5.5)	microbicidal activity (zones of inhibition) (pH 7.5)	microbicidal activity (zones of inhibition) (pH 7.5 and pH 5.5, FIG. 9)	relative potency at pH 7.5 versus pH 5.5
hIL7 (LCFLKRLLQEIKTCWNKILMGTKEH)	retained significant activity	somewhat less potent	–	–
hIL-13 (EVAQFVKDLLLHLKKLFREGRFN)	retained significant activity	somewhat less potent	–	–
tIL-5 (KRFIEKLRTFLRKLSRGAK)	–	–	markedly potent against all organisms	–
hIFN-γ (AIHELIQVMAELSPAAKTGKRKRSQMLFRGRRASQ)	–	–	significant activity against most organisms	somewhat more potent at pH 7.5 than 5.5
bIFN-γ (KAISELYNVITELSKSNSKMRKRRQNLFRGWKASK)	–	–	significant activity against most organisms	somewhat more potent at pH 7.5 than 5.5
hIL-21 (KEFLERFKSLLQKMIHQHLSSRTHGSEDS)	retained significant activity	somewhat less potent	–	–
